The record followed here is paper PMC7619385 (ACS infectious diseases, 2025).

As a reminder, the ΔTm is the shift of the melting midpoint relative to a reference.

The structures appear in SMILES notation. Structures can show the parent of a compound that is named as a salt. Where two headings read alike, the source gives them in different places.

For this assay, the target named is T1, LmxCLK1 (Leishmania mexicana, UniProt E9AMP2).
T1 sequence (E9AMP2 1-422): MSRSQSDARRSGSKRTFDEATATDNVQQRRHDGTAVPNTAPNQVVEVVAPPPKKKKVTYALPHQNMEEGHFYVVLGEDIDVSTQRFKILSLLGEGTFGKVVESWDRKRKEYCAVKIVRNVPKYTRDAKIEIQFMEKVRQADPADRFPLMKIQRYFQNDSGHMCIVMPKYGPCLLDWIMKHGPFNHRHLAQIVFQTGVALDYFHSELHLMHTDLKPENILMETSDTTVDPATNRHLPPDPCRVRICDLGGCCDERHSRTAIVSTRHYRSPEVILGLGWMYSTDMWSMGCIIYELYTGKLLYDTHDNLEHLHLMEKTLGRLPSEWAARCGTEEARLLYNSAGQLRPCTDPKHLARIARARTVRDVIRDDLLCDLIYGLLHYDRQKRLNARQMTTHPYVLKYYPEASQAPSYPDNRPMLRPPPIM
The assay is described as follows: biochemical. In kind it is binding.

Where [1] appears, read: DSF, 10 µM compound, 2 µM LmxCLK1, Run 1.
[2] abbreviates: DSF, 10 µM compound, 2 µM LmxCLK1, Run 2.
Setting [3] is: DSF, 10 µM compound, 2 µM LmxCLK1, mean of two runs.
Setting [4] is: DSF, 10 µM compound, 2 µM LmxCLK1, Run 1, read-out: ΔTm Run 1.
The mark [5] stands for this setting: DSF, 10 µM compound, 2 µM LmxCLK1, Run 2, read-out: ΔTm Run 2.
The mark [6] stands for this setting: DSF, 10 µM compound, 2 µM LmxCLK1, mean of two runs, read-out: ΔTm Average.

Regarding `Cn1c(Nc2ccc(C(F)(F)F)cc2)nc2cc(Oc3ccnc(-c4ncc(C(F)(F)F)[nH]4)c3)ccc21` [RAF265 (CHIR-265)], under setting [1], the “ΔTm Run 1” value was -0.1 °C. For the same compound, under setting [2], the “ΔTm Run 2” value was -0.3 °C. Further, under setting [3], the “ΔTm Average” value was -0.2 °C.
On to `O=C(NCc1cccc(O)c1)Nc1nc(-c2ccncc2)cs1` [RKI-1447], for which the “ΔTm Run 1” value under setting [1] was -0.1 °C. The “ΔTm Run 2” value under setting [2] is -0.1 °C. Besides, the “ΔTm Average” value under setting [3] is -0.1 °C.
Regarding `CO[C@H]1C[C@@H]2CC[C@@H](C)[C@@](O)(O2)C(=O)C(=O)N2CCCC[C@H]2C(=O)O[C@H]([C@H](C)C[C@@H]2CC[C@@H](O)[C@H](OC)C2)CC(=O)[C@H](C)/C=C(\C)[C@@H](O)[C@@H](OC)C(=O)[C@H](C)C[C@H](C)/C=C/C=C/C=C/1C` [Rapamycin (Sirolimus)], the ΔTm at 10 µM runs as follows: under setting [4], 0.3 °C; under setting [5], -0.1 °C; under setting [6], 0.1 °C.
On to `CO[C@H]1C[C@@H]2CC[C@@H](C)[C@@](O)(O2)C(=O)C(=O)N2CCCC[C@H]2C(=O)O[C@H]([C@H](C)C[C@@H]2CC[C@@H](OP(C)(C)=O)[C@H](OC)C2)CC(=O)[C@H](C)/C=C(\C)[C@@H](O)[C@@H](OC)C(=O)[C@H](C)C[C@H](C)/C=C/C=C/C=C/1C` [Ridaforolimus (Deforolimus)], for which the “ΔTm Run 1” value under setting [1] stood at 0.0 °C. Moreover, the “ΔTm Run 2” value under setting [2] is 0.0 °C. Moreover, the “ΔTm Average” value under setting [3] was 0.0 °C.
With `COc1cc(OC)c(/C=C/S(=O)(=O)Cc2ccc(OC)c(NCC(=O)O)c2)c(OC)c1` [Rigosertib (ON-01910)], the “ΔTm Run 1” value under setting [1] was -0.2 °C. For the same compound, the “ΔTm Run 2” value under setting [2] was -0.4 °C. Moreover, under setting [3], the “ΔTm Average” value is -0.3 °C.
With `CS(=O)(=O)O.Cn1cc(C2=C(c3cn(CCCSC(=N)N)c4ccccc34)C(=O)NC2=O)c2ccccc21` [Ro 31-8220 Mesylate], under setting [1], the “ΔTm Run 1” value is 1.1 °C. Moreover, the “ΔTm Run 2” value under setting [2] turned out to be 1.6 °C. Under setting [3], the “ΔTm Average” value turned out to be 1.3 °C.
Regarding `N#CC[C@H](C1CCCC1)n1cc(-c2ncnc3[nH]ccc23)cn1` [Ruxolitinib (INCB018424)], the ΔTm at 10 µM runs as follows: under setting [4], 0.9 °C; under setting [5], 1.1 °C; under setting [6], 1 °C.
Consider `CCn1c(N)c(C(=O)NC)c(=O)c2ccc(C#C[C@@](C)(O)COC)nc21` [SAR131675], for which the “ΔTm Run 1” value under setting [1] worked out at 0.0 °C. For the same compound, the “ΔTm Run 2” value under setting [2] was -0.1 °C. Further, the “ΔTm Average” value under setting [3] worked out at 0.0 °C.
Consider `CCn1c(=O)c(-c2cc[nH]n2)cc2c(C)nc(N)nc21` [SAR245409 (XL765)], for which the “ΔTm Run 1” value under setting [1] amounted to 0.1 °C. Also, the “ΔTm Run 2” value under setting [2] is -0.2 °C. Besides, the “ΔTm Average” value under setting [3] is 0.0 °C.
On the same counts, the results for `Oc1ccc(-c2nc(-c3ccc(F)cc3)c(-c3ccncc3)[nH]2)cc1` [SB202190 (FHPI)] are 0.2 °C, 0.4 °C and 0.3 °C.
Turning to `CN(C)CCOc1ccc(-c2nc(-c3ccncc3)c(-c3ccc4c(c3)CC/C4=N\O)[nH]2)cc1` [SB590885], the ΔTm at 10 µM was -0.1 °C under setting [4], -0.4 °C under setting [5] and -0.2 °C under setting [6].
Turning to `CN1CCC(CNc2ccc3ncc(-c4cccc(OC(F)(F)F)c4)n3n2)CC1` [SGI-1776 free base], the “ΔTm Run 1” value under setting [1] came to 0.7 °C. Further, the “ΔTm Run 2” value under setting [2] amounted to 0.5 °C. Under setting [3], the “ΔTm Average” value was found to be 0.6 °C.
Consider `Cn1cc(-c2ccc3nnc(Sc4ccc5ncccc5c4)n3n2)cn1` [SGX-523], for which the ΔTm at 10 µM by setting is: under setting [4], -0.1 °C; under setting [5], -0.2 °C; under setting [6], -0.1 °C.
Turning to `Oc1ccc(Nc2nc(-c3ccc(Cl)cc3)cs2)cc1` [SKI II], the “ΔTm Run 1” value under setting [1] was found to be 0.1 °C. The “ΔTm Run 2” value under setting [2] came to 0.1 °C. Also, under setting [3], the “ΔTm Average” value was 0.1 °C.
As to `N#C/C(=C(/N)Sc1ccc(N)cc1)c1ccccc1C(F)(F)F` [SL-327], the “ΔTm Run 1” value under setting [1] was -0.2 °C. Besides, under setting [2], the “ΔTm Run 2” value is -0.2 °C. Moreover, the “ΔTm Average” value under setting [3] was -0.2 °C.
Take `O=C1NC(=O)/C(=C/c2cccc(C(F)(F)F)c2)S1` [SMI-4a]: the “ΔTm Average” value is recorded as -0.2, the “ΔTm Run 1” value is on record as -0.3 and the “ΔTm Run 2” value was -0.1.
In the case of `CC(C)(C)c1cnc(CSc2cnc(NC(=O)C3CCNCC3)s2)o1` [SNS-032 (BMS-387032)], the “ΔTm Run 1” value under setting [1] was 0.2 °C. In addition, the “ΔTm Run 2” value under setting [2] came to 0.0 °C. Also, the “ΔTm Average” value under setting [3] was 0.1 °C.
`O=C(Nc1cccc(Cl)c1)Nc1ncc(CCNc2ncnc3ccsc23)s1` [SNS-314 Mesylate]: the ΔTm at 10 µM runs as follows: under setting [4], 3.6 °C; under setting [5], 8.3 °C; under setting [6], 5.9 °C.
With `Oc1c2ccccc2c2c3c(cccc13)N=N2` [SP600125], the ΔTm at 10 µM was 0.1 °C under setting [4], -0.3 °C under setting [5] and -0.1 °C under setting [6].
For `COc1c(C)c(C(=O)c2ccc(N)c(C(=O)[O-])c2)n2ccccc12.[Na+]` [SSR128129E], the “ΔTm Average” value is -0.1, the “ΔTm Run 1” value is recorded as -0.1 and the “ΔTm Run 2” value was -0.1.
Turning to `CN1CCN(CCOc2cc(OC3CCOCC3)c3c(Nc4c(Cl)ccc5c4OCO5)ncnc3c2)CC1` [Saracatinib (AZD0530)], the “ΔTm Run 1” value under setting [1] was found to be 0.8 °C. The “ΔTm Run 2” value under setting [2] was 0.7 °C. In addition, the “ΔTm Average” value under setting [3] was determined as 0.7 °C.
With `Cn1cnc2c(F)c(Nc3ccc(Br)cc3Cl)c(C(=O)NOCCO)cc21` [Selumetinib (AZD6244)], the ΔTm at 10 µM is, setting by setting: under setting [4], 0.3 °C; under setting [5], 0.3 °C; under setting [6], 0.3 °C.
Turning to `CNC(=O)c1cc(Oc2ccc(NC(=O)Nc3ccc(Cl)c(C(F)(F)F)c3)cc2)ccn1` [Sorafenib Tosylate], under setting [1], the “ΔTm Run 1” value is 0.3 °C. For the same compound, the ΔTm at 10 µM under setting [5] stood at 0.2 °C. The “ΔTm Average” value under setting [3] turned out to be 0.3 °C.
As to `CNC(=O)c1cc(Oc2ccc(NC(=O)Nc3ccc(Cl)c(C(F)(F)F)c3)cc2)ccn1` [Sorafenib], the “ΔTm Run 1” value under setting [1] was -0.3 °C. Moreover, the “ΔTm Run 2” value under setting [2] amounted to 0.2 °C. The “ΔTm Average” value under setting [3] was -0.1 °C.
Regarding `CN1CCN(c2nc(C3=C(c4c[nH]c5ccccc45)C(=O)NC3=O)c3ccccc3n2)CC1` [Sotrastaurin], the ΔTm at 10 µM reads like this: under setting [4], 1.2 °C; under setting [5], 0.9 °C; under setting [6], 1 °C.
As for `CCN(CC)CCNC(=O)c1c(C)[nH]c(/C=C2\C(=O)Nc3ccc(F)cc32)c1C` [Sunitinib Malate], the ΔTm at 10 µM is, setting by setting: under setting [4], 0.3 °C; under setting [5], 0.2 °C; under setting [6], 0.2 °C.
`CC(C)(O)CC(=O)NCCn1ccc2ncnc(Nc3ccc(Oc4cccc(C(F)(F)F)c4)c(Cl)c3)c21` [TAK-285]: the ΔTm at 10 µM is, setting by setting: under setting [4], -0.5 °C; under setting [5], -0.2 °C; under setting [6], -0.3 °C.
`N#Cc1c(Oc2ccc(F)c(NC(=O)Cc3cccc(C(F)(F)F)c3)c2)ccc2nc(NC(=O)C3CC3)sc12` [TAK-632]: under setting [1], the “ΔTm Run 1” value came to 0.2 °C. In addition, under setting [2], the “ΔTm Run 2” value worked out at 0.1 °C. Moreover, the “ΔTm Average” value under setting [3] stood at 0.1 °C.
Turning to `CCc1nc(-c2cccc(C)c2)c(-c2ccnc(NC(=O)c3ccccc3)c2)s1` [TAK-715], the ΔTm at 10 µM turned out to be 0.5 °C under setting [4], 0.8 °C under setting [5] and 0.7 °C under setting [6].
Take `Cn1c(=O)c(F)c(Nc2ccc(I)cc2F)c2c(=O)n(C[C@@H](O)CO)cnc21` [TAK-733]: the ΔTm at 10 µM runs as follows: under setting [4], 0.2 °C; under setting [5], -0.3 °C; under setting [6], -0.1 °C.
Turning to `COc1ccc(C(=O)Nc2sc3c(c2C(N)=O)CCCC3)cc1OC` [TCS 359], the “ΔTm Run 1” value under setting [1] is 0.0 °C. In addition, the “ΔTm Run 2” value under setting [2] was determined as 0.0 °C. Also, the “ΔTm Average” value under setting [3] worked out at 0.0 °C.
Consider `Nc1nc(N)c2nc(-c3cccc(O)c3)c(-c3cccc(O)c3)nc2n1` [TG100-115], for which the “ΔTm Average” value was 1.5 °C, the “ΔTm Run 1” value was 1.7 °C and the “ΔTm Run 2” value worked out at 1.3 °C.
`Nc1nc(N)c2nc(-c3cccc(O)c3)cnc2n1` [TG100713]: the “ΔTm Average” value was -0.1, the ΔTm Run 1 was determined as 0.1 °C and the “ΔTm Run 2” value was -0.2.
`Cc1cnc(Nc2ccc(N3CCN(C)CC3)cc2)nc1Nc1cccc(S(=O)(=O)NC(C)(C)C)c1` [TG101209]: the “ΔTm Run 1” value under setting [1] came out at 0.2 °C. For the same compound, the “ΔTm Run 2” value under setting [2] was -0.3 °C. For the same compound, the “ΔTm Average” value under setting [3] was 0.0 °C.
Consider `Cc1cnc(Nc2ccc(OCCN3CCCC3)cc2)nc1Nc1cccc(S(=O)(=O)NC(C)(C)C)c1` [TG101348 (SAR302503)], for which, under setting [1], the “ΔTm Run 1” value was 0.2 °C. In addition, under setting [2], the “ΔTm Run 2” value is 0.3 °C. In addition, the “ΔTm Average” value under setting [3] came to 0.3 °C.
As for `Cc1cc(C(C)Nc2ccccc2)c2nc(N3CCOCC3)cc(=O)n2c1` (stereo not drawn) [TGX-221], the “ΔTm Run 1” value under setting [1] was 0.5 °C. Besides, under setting [2], the “ΔTm Run 2” value was 0.3 °C. In addition, under setting [3], the “ΔTm Average” value was 0.4 °C.
As for `Cc1[nH]c(/C=C2\C(=O)Nc3ccccc32)c(C)c1CCC(=O)O` [TSU-68 (SU6668)], under setting [1], the “ΔTm Run 1” value was determined as 0.1 °C. Besides, the “ΔTm Run 2” value under setting [2] was -0.1 °C. Further, the “ΔTm Average” value under setting [3] was found to be 0.0 °C.
On to `Nc1cccc(-c2cc3c(Oc4cccc(O)c4)ncnc3[nH]2)c1` [TWS119], for which the “ΔTm Run 1” value under setting [1] was 0.1 °C. In addition, under setting [2], the “ΔTm Run 2” value was found to be 0.2 °C. Also, under setting [3], the “ΔTm Average” value is 0.1 °C.
